Results reported in patent US11351260B2, “Photocleavable cobalt-nitrosyl complex and nitric oxide carrier containing the same” (DAEGU GYEONGBUK INSTITUTE OF SCIENCE AND TECHNOLOGY, priority 2019, dated 2022).

Tested on: EGFR
Assay: EGFR single-particle tracking and diffusion analysis (dark-field, anti-EGFR-AuNP)
Assay type: cell-based
Conditions: ERK-KTR cells; NOExo treatment (complex of Example 1 + hν) or EGF treatment; untreated control 0.071
Description: To confirm whether the activation of ERK by NO generated from the complex of Example 1 was induced by other receptors or membrane features, thus perturbing other signaling pathways, such as the MAPK pathway activated by the […] of EGF receptors (EGFRs) or by nonspecific disturbances caused by the formation of cellular membranes like lipid rafts, individual EGFRs in live cells were tracked, and analyzed.
Time-lapse dark-field microscope images were taken every 20 ms for 10 s. Lateral diffusion motion of protein was analyzed by particle trajectories. TrackMate plugin on Image J was used for single-particle tracking and trajectory analysis. For each particle, mean square displacement (MSD) was calculated from the x, y position and time information obtained from trajectory analysis; MSD(t)=<(xi+n−xi)^2+(yi+n−yi)^2>. The MSD versus time intervals were plotted up to the time lag (t) equivalent to 1/10th of the trajectory duration, then fitted to a linear equation corresponding to the Brownian motion. Diffusion coefficient (D) was calculated from the slope of the first ten points of the MSD plot; MSD=4Dt.
For single-molecule tracking of EGFR, anti-EGFR (EGFR anti-bodies) was conjugated to gold nanoparticles (AuNPs, 50 nm in diameter) using the biotin-neutravidin interaction (FIG. 8A), achieving high specificity (FIG. 8B). […]

## epidermal growth factor [EGF, reference compound]
  diffusion coefficient of EGFR (DEGFR): 0.017 μm^2 s^−1
